Reference: ChEMBL document CHEMBL1817621, “SAR studies of acidic dual γ-secretase/PPARγ modulators” (Bioorg Med Chem, 2011)
Calls of active or inactive are those of the source. The calls are words filed in the database; no cut-off is given here.

Experiments:
[1] = Modulation of gamma-secretase expressed in CHO cells co-expressing human APP and wild type human presenilin-1 assessed as inhibition of amyloid beta42 production by ELISA; format: cell-based
[2] = test system: CHO; assay: Cytotoxicity against CHO cells expressing human APP and wild type human presenilin-1 assessed as reduction of cell viability up to 40 uM after 24 hrs by Alamar blue assay; format: cell-based, Cricetulus griseus; conditions: chinese hamster
[3] = target: T1, Peroxisome proliferator-activated receptor delta (Homo sapiens) (UniProt Q03181); assay: Modulation of human PPARdelta-LBD expressed in african green monkey COS7 cells co-transfected with Gal4 assessed as activation of transactivation activity at 10 uM by luciferase assay; format: cell-based; conditions: COS-7
T1 sequence (whole entry): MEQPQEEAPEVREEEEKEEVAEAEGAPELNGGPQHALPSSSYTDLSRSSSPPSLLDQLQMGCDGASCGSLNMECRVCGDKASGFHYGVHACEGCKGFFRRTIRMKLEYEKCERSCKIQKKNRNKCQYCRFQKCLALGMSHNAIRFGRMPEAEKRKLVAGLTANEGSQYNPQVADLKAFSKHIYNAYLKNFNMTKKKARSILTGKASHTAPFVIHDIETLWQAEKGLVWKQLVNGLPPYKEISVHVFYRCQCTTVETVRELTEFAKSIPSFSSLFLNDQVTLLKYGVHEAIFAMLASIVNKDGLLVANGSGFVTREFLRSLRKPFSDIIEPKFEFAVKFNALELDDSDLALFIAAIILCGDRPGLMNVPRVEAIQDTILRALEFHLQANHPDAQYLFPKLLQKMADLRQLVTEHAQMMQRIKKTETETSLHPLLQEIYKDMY

[4] = target: T2, Peroxisome proliferator-activated receptor alpha (Homo sapiens) (UniProt Q07869); assay: Modulation of human PPARalpha-LBD expressed in african green monkey COS7 cells co-transfected with Gal4 assessed as activation of transactivation activity at 10 uM by luciferase assay; format: cell-based; conditions: COS-7
T2 sequence (whole entry): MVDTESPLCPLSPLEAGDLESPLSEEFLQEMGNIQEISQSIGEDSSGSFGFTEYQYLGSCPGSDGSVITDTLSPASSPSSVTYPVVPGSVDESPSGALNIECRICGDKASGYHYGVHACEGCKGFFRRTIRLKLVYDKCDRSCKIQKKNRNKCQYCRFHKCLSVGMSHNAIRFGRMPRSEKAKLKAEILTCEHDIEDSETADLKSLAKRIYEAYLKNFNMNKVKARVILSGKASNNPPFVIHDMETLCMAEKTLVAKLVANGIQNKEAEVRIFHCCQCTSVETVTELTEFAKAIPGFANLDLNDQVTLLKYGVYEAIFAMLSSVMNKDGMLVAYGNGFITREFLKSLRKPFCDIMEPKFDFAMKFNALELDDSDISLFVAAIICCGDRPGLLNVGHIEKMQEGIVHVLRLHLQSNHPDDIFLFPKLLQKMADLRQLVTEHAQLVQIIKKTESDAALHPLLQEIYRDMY

[5] = Modulation of gamma-secretase expressed in CHO cells co-expressing human APP and wild type human presenilin-1 assessed as increase of amyloid beta38 production by ELISA; format: cell-based
[6] = target: T3, Prostaglandin G/H synthase 1 (Ovis aries) (UniProt P05979); assay: Inhibition of ovine COX-1 assessed as residual activity by measuring formation of 12-HHT from arachidonic acid at 10 uM by HPLC analysis
T3 sequence (whole entry): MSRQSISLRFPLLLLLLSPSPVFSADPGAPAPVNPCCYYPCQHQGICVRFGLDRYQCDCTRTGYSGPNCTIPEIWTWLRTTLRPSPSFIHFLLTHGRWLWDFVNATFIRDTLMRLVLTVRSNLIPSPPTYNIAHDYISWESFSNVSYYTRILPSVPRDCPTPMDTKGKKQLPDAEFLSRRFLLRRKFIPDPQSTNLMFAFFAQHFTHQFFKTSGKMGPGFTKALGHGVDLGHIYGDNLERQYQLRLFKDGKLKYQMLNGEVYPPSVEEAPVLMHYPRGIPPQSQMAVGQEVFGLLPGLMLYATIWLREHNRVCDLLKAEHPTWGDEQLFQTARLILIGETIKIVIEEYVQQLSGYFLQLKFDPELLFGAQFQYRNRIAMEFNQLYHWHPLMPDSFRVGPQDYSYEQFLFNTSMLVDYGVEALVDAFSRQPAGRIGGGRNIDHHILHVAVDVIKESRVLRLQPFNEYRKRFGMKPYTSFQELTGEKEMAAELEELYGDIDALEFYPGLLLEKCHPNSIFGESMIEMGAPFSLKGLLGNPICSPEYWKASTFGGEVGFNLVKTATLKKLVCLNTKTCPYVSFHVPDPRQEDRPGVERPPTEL

[7] = target: T4, Prostaglandin G/H synthase 2 (Homo sapiens) (UniProt P35354); assay: Inhibition of human recombinant COX-2 assessed as residual activity by measuring formation of 12-HHT from arachidonic acid at 10 uM by HPLC analysis
T4 sequence (whole entry): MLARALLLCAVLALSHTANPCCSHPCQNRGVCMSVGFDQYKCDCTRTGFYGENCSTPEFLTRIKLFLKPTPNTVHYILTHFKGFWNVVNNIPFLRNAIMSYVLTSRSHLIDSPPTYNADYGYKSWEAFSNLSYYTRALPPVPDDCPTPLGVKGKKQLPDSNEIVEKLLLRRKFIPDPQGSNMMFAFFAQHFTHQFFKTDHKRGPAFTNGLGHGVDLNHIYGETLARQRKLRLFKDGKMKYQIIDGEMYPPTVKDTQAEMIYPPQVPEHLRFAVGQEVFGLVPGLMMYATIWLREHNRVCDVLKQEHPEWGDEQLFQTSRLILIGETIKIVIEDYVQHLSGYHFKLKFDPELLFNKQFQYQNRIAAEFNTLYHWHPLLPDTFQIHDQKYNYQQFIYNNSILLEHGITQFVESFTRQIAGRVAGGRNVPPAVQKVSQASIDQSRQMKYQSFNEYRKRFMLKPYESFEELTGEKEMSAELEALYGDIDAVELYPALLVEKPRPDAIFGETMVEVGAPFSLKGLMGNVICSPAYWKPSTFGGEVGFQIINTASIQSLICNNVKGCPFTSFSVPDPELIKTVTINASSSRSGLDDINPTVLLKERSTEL

[8] = target: T5, Peroxisome proliferator-activated receptor gamma (Homo sapiens) (UniProt P37231); assay: Modulation of human PPARgamma-LBD expressed in african green monkey COS7 cells co-transfected with Gal4 assessed as activation of transactivation activity at 10 uM by luciferase assay; format: cell-based; conditions: COS-7
T5 sequence (whole entry): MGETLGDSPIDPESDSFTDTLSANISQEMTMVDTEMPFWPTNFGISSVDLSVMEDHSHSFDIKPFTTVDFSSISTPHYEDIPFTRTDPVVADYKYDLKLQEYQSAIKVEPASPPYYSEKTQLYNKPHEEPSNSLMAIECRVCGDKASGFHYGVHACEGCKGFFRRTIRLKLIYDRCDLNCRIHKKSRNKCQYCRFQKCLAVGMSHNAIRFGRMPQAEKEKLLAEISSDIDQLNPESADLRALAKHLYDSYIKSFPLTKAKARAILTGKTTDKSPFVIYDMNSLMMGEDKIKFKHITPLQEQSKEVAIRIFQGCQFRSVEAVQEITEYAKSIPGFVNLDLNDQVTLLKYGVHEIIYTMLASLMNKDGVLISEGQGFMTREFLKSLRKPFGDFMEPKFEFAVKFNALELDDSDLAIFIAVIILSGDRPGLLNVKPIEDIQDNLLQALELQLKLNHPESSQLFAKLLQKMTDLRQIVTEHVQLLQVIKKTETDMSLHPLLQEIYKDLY

[9] = target: T6, Peroxisome proliferator-activated receptor gamma (Homo sapiens, UniProt P37231); assay: Modulation of human PPARgamma-LBD expressed in african green monkey COS7 cells co-transfected with Gal4 assessed as activation of transactivation activity by luciferase assay; format: cell-based, COS-7
T6 sequence (P37231 whole entry): T5 sequence (whole entry)

[10] = test system: CHO; assay: Inhibition of gamma-secretase-mediated notch signaling expressed in CHO cells transfected with Gal4-DNA-binding/VP16 transactivation domain assessed as reduction of reporter activity up to 30 uM by luciferase assay; format: cell-based
[11] = Selectivity ratio of inhibition of gamma-secretase-mediated notch signaling to modulation of gamma-secretase
[12] = target: T5, Peroxisome proliferator-activated receptor gamma (Homo sapiens); assay: Modulation of human PPARgamma-LBD expressed in african green monkey COS7 cells co-transfected with Gal4 assessed as activation of transactivation activity by luciferase assay relative to pioglitazone; format: cell-based; conditions: COS-7

Structure (SMILES) | IC50 [1] [µM] | Activity [2] | Activity [3] | Activity [4] | EC50 [5] [µM] | Activity [6] [%] | Activity [7] [%] | Activity [8] [%] | EC50 [9] [µM] | inhibition [10] | Ratio [11] | Emax [12] [%]
CCCCC(Sc1nc(OCCC2CCCCC2)cc(OCCC2CCCCC2)n1)C(=O)O (stereo not drawn) | 6 | Non-toxic | – | – | – | – | – | – | – | – | – | –
CCCC/C(=C\c1cc(OCCC2CCCCC2)ccc1OCc1ccc(C(F)(F)F)cc1)C(=O)O | 2.7 | Non-toxic | inactive | inactive | 2.5 | 92.3 | 106 | 27 | – | – | – | –
CCCC/C(=C\c1cc(OCCc2ccc(C(F)(F)F)cc2)ccc1OCCc1ccc(C(F)(F)F)cc1)C(=O)O | 2.4 | Non-toxic | inactive | inactive | 1.6 | 81 | 102 | – | 7.2 | inactive | 8 | 86
CCCCC(Cc1ccc(OCCc2ccccc2)c(OCCc2ccccc2)c1)C(=O)O (stereo not drawn) | > 40 | Non-toxic | inactive | inactive | > 40 | 95.8 | 86.4 | – | 2.2 | – | – | 100
CCCC/C(=C\c1cc(OCCc2ccccc2)cc(OCCc2ccccc2)c1)C(=O)O | 37.9 | Non-toxic | inactive | inactive | 27.3 | 81.4 | 81.4 | – | 7.8 | – | – | 95
CCCCC(Oc1cc(OCCc2ccccc2)cc(OCCc2ccccc2)c1)C(=O)O (stereo not drawn) | 33.7 | Non-toxic | inactive | inactive | 26.4 | 71.6 | 92.5 | – | 4.8 | – | – | 46
CCCCC(Cc1ccc(OCCC2CCCCC2)c(OCCC2CCCCC2)c1)C(=O)O (stereo not drawn) | > 40 | Non-toxic | inactive | inactive | > 40 | 73.8 | 79.1 | – | 1.1 | – | – | 69
CCCCC(Sc1cc(OCCc2ccccc2)cc(OCCc2ccccc2)c1)C(=O)O (stereo not drawn) | 32.7 | Non-toxic | inactive | inactive | 22.2 | 71.3 | 110 | – | 3.4 | – | – | 73
CCCCC(Cc1ccc(OCCc2ccccc2)c(OCCC2CCCCC2)c1)C(=O)O (stereo not drawn) | > 40 | Non-toxic | inactive | inactive | > 40 | 82 | 96.6 | – | 1.5 | – | – | 128
CCCCC(Cc1cc(OCCc2ccccc2)ccc1OCCc1ccccc1)C(=O)O (stereo not drawn) | 19.1 | Non-toxic | inactive | inactive | 14.5 | 63.8 | 66.5 | – | 10.8 | – | – | 97
CCCC/C(=C\c1cc(OCc2ccc(C(F)(F)F)cc2)ccc1OCc1ccc(C(F)(F)F)cc1)C(=O)O | 1.2 | Non-toxic | inactive | inactive | 1.1 | 82.6 | 102 | 28 | – | – | – | –
CCCCC(Cc1ccc(OCCC2CCCCC2)c(OCCc2ccccc2)c1)C(=O)O (stereo not drawn) | > 40 | Non-toxic | inactive | inactive | > 40 | 69.1 | 91.5 | – | 2.5 | – | – | 61
CCCC/C(=C\c1cc(OCCc2ccccc2)ccc1OCCc1ccccc1)C(=O)O | 15.4 | Non-toxic | inactive | inactive | 6.7 | 68 | 94.4 | – | 1.8 | – | – | 47
CCCCC(Cc1cccc(OCCc2ccccc2)c1OCCc1ccccc1)C(=O)O (stereo not drawn) | > 40 | Non-toxic | inactive | inactive | > 40 | 66.1 | 89.6 | – | 3.7 | – | – | 79
CCCCC(Cc1cc(OCCc2ccccc2)cc(OCCc2ccccc2)c1)C(=O)O (stereo not drawn) | 38.4 | Non-toxic | inactive | inactive | 28.1 | 78.7 | 78.4 | – | 4.7 | – | – | 71
